One experiment has as its system MC38-OVA tumor cells. Put plainly: Murine MC38-OVA tumor model, in vivo CD8+ T cell depletion. Conditions: OVA immunized mice; 3 mM MgCl2 vs NaCl i.t.; anti-CD8a Ab 10 mg kg^−1 i.p. weekly. The protocol: FIG. 1: Intratumoral magnesium administration improves adaptive anti-tumor immunity. (a) Schematic of experimental design. B1/6 mice, either immunized with OVA or left untreated, were inoculated subcutaneously with MC38-OVA tumor cells bilaterally on the flanks. From day 7, injection of 3 mM NaCl solution was applied in left flank tumor, whereas 3 mM MgCl2 solution was injected in contralateral tumor. This regimen was repeated every third day for a total of 8 cycles. (b) Tumor growth curves in non-immunized mice (n=20) (left panel), and immunized mice (n=19) (right panel). (c) Tumor growth curves in ±CD8 depleted mice (n=6-17). Results were pooled from 2 independent experiments, with n=6-12 mice each. (d) Absolute numbers of tumor-infiltrating CD8^+ T cells. (e) Number of tumor-infiltrating CD8^+ T cells positive for Ki67 (left panel), Granzyme B (middle panel) and CD25 (right panel). (f) Cell number of tumor-infiltrating CD8^+ T cells expressing PD-1 and Tim3. (g) Schematic of experimental design. B1/6 mice, immunized with OVA, were inoculated subcutaneously with MC38-OVA tumor cells unilaterally on the flank. From day 5, intratumoral injections of either 3 mM NaCl or 3 mM MgCl2 were initiated, and repeated every third day for 8 cycles. Mice were additionally injected with 200 μg i.p. of isotype control (IgG2a) or anti-PD-1 Ab on day 9, 12, and 15. […]

Experiment [1] concerns focal adhesion kinase (FAK), TNF. Put plainly: FAK phosphorylation and TNF expression in activated PHA T cell blasts. The experiment is classed as cell-based, human. Conditions: Mg^2+-restricted conditions. The protocol:
FIG. 2: Extracellular magnesium promotes memory-specific activation via LFA-1. Glycolytic switch of human EM CD8 T cells (a) and naïve CD8 T cells (b) subsets upon injection of anti-CD3 Ab only, or anti-CD3 and anti-CD28 Ab, was assessed by metabolic flux analysis in medium containing either 1.2 mM Mg^2+, 0 mM Mg^2+, or medium which was reconstituted from 0 mM to 1.2 mM Mg^2+ immediately prior to activation (0→1.2 mM Mg^2+). (a) Results for human effector memory (EM) and (b) for human naïve CD8 T cells. Glycolytic switch was quantified by subtracting […] measurements. (c) Flow cytometric analysis of surface activation markers on human EM CD8 T cells 24 hours after activation by plate-bound anti-CD3 Ab and soluble anti-CD28 Ab, in 1.2 mM and 0 mM Mg^2+ media, respectively. (d) Abundance of inflammatory cytokines in corresponding EM CD8 T cell culture supernatants, determined by CBA. (e) CD11a (LFA-1) surface expression on human naïve and EM CD8 T cells as well PHA T cell blasts. Flow cytometry-based assessment of total LFA-1 expression assessed by mAb TS2/4 (f), closed conformation of αL by mAb HI111 (g), extended conformation of LFA-1 by mAb Kim127 (h), open head-piece conformation of LFA-1 by mAb m24 (i), phosphorylation of focal adhesion kinase (FAK) […] as well TNF expression (k)±TCR-induced activation in different extracellular Mg^2+ concentrations. […]

Each structure is given as a SMILES string.

In the case of `[Mg+2]` [Mg^2+, Magnesium], the “Tumor growth in ±CD8 depleted mice” value with MC38-OVA tumor cells is “exerted its effect via CD8^+ T cells”. For the same compound, the “Phosphorylation of focal adhesion kinase (FAK)” value in experiment [1] is on record as “decreased”.

The values are drawn from patent US20240010726A1, “LFA-1 SIGNALLING MEDIATOR FOR USE IN CANCER THERAPY” (Universität Basel, priority 2020, published 2024).
